# According to patent publication US20080155704A1, “Methods and Compositions for Determining in vivo Activity of BiP” (King's College London, priority 2006, published 2008):
# Key:
# IL-10 = IL-10 production by dendritic cell cultures (ELISA); type: cell-based, human; conditions: for IL-10 production: n=8
# Method: (§1) Supernatant samples were collected on day 1, 3 and 7 for iDC and from the final cultures of the T cells taken from the iDC/mDC-T cell allogeneic test system and set up with autologous cells to determine if there was any regulatory activity. The samples were aliquoted and frozen at −70° C. until required. Production IL-10 was quantified by ELISA using paired antibodies and recombinant standards (PharMingen, Oxford, UK) according to the recommendations of the manufacturer. In addition some were analysed by cytometric bead assay (BD, Oxford, UK) according to the manufacturers instructions.
# To neutralize IL-10 within the cultures anti-IL-10 antibody (ATCC, Rockville, USA) was added at day 0 (5 μg/ml) to GM-CSF and IL-4 treated cultures in the presence and absence of BiP (20 μg/ml). Two specific cell-permeable inhibitors of the MAPK intracellular signalling pathways were used. SB203580 (SB)(10 μM)((Calbiochem, Darmstadt, Germany) inhibits p38 MAPK, and PD98059 (PD) (10 μM)(Calbiochem), an inhibitor of MAPK extracellular signal regulated kinase (ERK), were tested. MO were pre-treated with the inhibitors for 2 h before adding GM-CSF and IL-4 in the presence or absence of BiP.
# as §1, with “of the pro-inflammatory cytokine, TNFα, and the anti-inflammatory cytokine, IL-10,” for “IL-10”
# T cells = experiment: Regulatory markers on T cells co-cultured with BiP-treated dendritic cells; type: cell-based, human
# Method: FIG. 11: Co-culture of T cells with BiP-treated dendritic cells (DC) upregulates regulatory markers. […] Mean ±standard deviation of three experiments is shown.
# Intracellular staining was carried out with fixed cells incubated with 1% paraformaldehyde in IF buffer for 5 minutes at room temperature. The cells were washed twice with IF buffer containing 0.3% saponin for permeabilization. 0.3% saponin was then present in all IF buffer used thereafter. CTLA-4/CD152 (BD), FoxP3 (eBioscience) and indolamine 2,3-dioxygenase (Santa Cruz) and cytokines required intracellular staining. Antibodies were added at the pre-determined optimal concentration for 20 mins and then the cells were washed twice with IF buffer and analysed. Isotype controls, IgG1 and IgG2a (Becton Dickinson, Oxford, UK) were used in parallel. Cells were analysed on a FACScan cytometer using Cellquest software (Becton Dickinson, Oxford, UK).
# T cells were purified from peripheral blood mononuclear cells and set up in culture with either allogeneic or autologous dendritic cells, which had been washed and irradiated, at a ratio of 10 T cells:1 DC. The cells were co-cultured in a 24 well plate in 1 ml/well, in RPMI 1640 supplemented with 10% foetal calf serum, for 4 days then the T cells were removed and washed before being investigated for the presence of T regulatory cells (see below)
# Immunofluorescent staining was performed, as described previously (39), on DC harvested at day 7, T cells after 4 days co-culture with DC. Saturating concentrations of fluorescein isothiocyanate (FITC)-, phycoerythrin (PE) or peridium chlorophyll (Per-CP)-conjugated mAb were added recognizing CD14, CD86, CD80, HLA-DR, CD11c, CD1a, CD83, CD85j, IL-10 receptor; purity of the negatively selected MO and T cells was checked using CD3, CD4, CD14, CD20 and CD57 (all from Becton Dickinson/PharMingen (BD), Oxford, UK). Intracellular staining was carried out following fixation of cells with 1% paraformaldehyde for 5 minutes. Cells were then washed with immunofluorescence buffer (PBS/0.1% BSA/0.05% azide) containing 0.3% saponin. 0.3% saponin was then present in all solutions thereafter. CD152/CTLA-4 (BD, Oxford UK) and IDO (Santa Cruz, Autogen Bioclear, UK) were intracellular stains. Isotype controls, IgG1 and IgG2a (BD, Oxford, UK) were used in parallel. Cells were analysed on a FACScan/FACScalibur cytometers using Cellquest software (BD, Oxford, UK).
# [1] = test system: human peripheral blood mononuclear cells; experiment: Human PBMC injected intraperitoneally into SCID mice; type: in vivo, human cells in SCID mice
# Method: Human peripheral blood mononuclear cells (50.106/mouse), either with concomitant BiP (100 μg/mouse) or with PBS/vehicle, were injected into the peritoneal cavity of SCID mice. After 11d the cells were flushed from the peritoneal cavity and investigated by flow cytometry. (A) Intracellular expression of IL-4 was measured 3 h post ex vivo stimulation with PMA (10 ng/ml) and ionomycin (1 μg/ml) in the presence of monensin. (B) surface expression of HLA-DR CD4+ cells. The mean and standard deviation of 3 experiments are shown
# The biomarkers were investigated in two situations: 1) when 50.10^6 human peripheral blood mononuclear cells were injected intraperitoneally, with or without BiP (100 μg), into a mouse and the cells were harvested from the peritoneum 11 days later; or (2) BiP (200 μg) was injected intravenously into a mouse and the spleens and lymph nodes removed 11 days later.
# In each of three experiments, two/three mice were injected either with BiP treated human peripheral blood mononuclear cells (hPBMC) (50.10^6/mouse) and or untreated hPBMC. The mice were sacrificed 11 days later, the peritoneal cavity washed out and the cells collected for immunofluorescence and flow cytometric analysis. The cells were particularly stained for TH2 markers and intracellular anti-inflammatory cytokines.
# SCID mice were given an intraperitoneal injection of human PBMC (50.106/mouse) in the presence or absence of BiP (100 μg/mouse) and sacrificed 11d later when the peritoneum was washed out with PBS and the remaining cells collected for analysis. Cells were examined for the intracellular presence of IL-4 or IFNγ and for cell surface molecules such as HLA-DR and CD86.
# IL-8 = IL-8 production by dendritic cells (cytometric bead array); type: cell-based, human; conditions: iDC and mDC, BiP 20 μg/ml, 7d culture (FIG. 7)
# From the text: In a series of experiments IL-8 was detected using cytometric bead array (Becton Dickinson) where the mean fluorescence intensity (MFI) is proportional to the concentration of cytokine.
# [2] = Example 4, hPBMC recovered from peritoneum after 11 days
substance,measurement,setting,value
BiP: 78 kD endoplasmic reticulum chaperone protein as disclosed in WO 00/21995; recombinant human protein,IL-10 production by early DC(BiP) cultures,"IL-10; 3d GM-CSF and IL-4 with BiP 20 μg/ml, inhibitors 10 μM, anti-IL-10 added at day 0 (FIG. 13D)",significantly more IL-10
same,IL-10 production,"IL-10; iDC(BiP), 7d culture",819.1 ± 688 pg/mL
same,IL-10 production,"IL-10; mDC(BiP), 7d culture with LPS final 2d",970.1 ± 684 pg/mL
same,IL-10 production by BiP-treated DC,IL-10; versus untreated DC (FIG. 1),significantly more IL-10
same,intracellular CTLA-4 in T cells in contact with mDC(BiP),T cells; FIG. 11B,significant upregulation of intracellular CTLA-4
same,T cell surface expression for CD4CD25hiCD27hi,"T cells; after 4d contact with mDC(BiP), n=5",2.5±0.2%
same,intracellular CTLA-4/CD152 in T cells,"T cells; after contact with BiP treated DC, n=4",31±12
same,cell surface CCR4 on T cells,"T cells; after contact with mDC(BiP), n=4",17.3±2.0%
same,cells with intracellular IFNγ,[1]; [2],23.5±4%
same,cells with intracellular IL-4,[1]; [2],16.2±0.5%
same,cells with intracellular IL-5,[1]; [2],29±7%
same,intracellular IL-4 in CD4+ cells,"[1]; Example 10, BiP 100 μg/mouse, 11 days, ex vivo PMA and ionomycin 3 h, n=5",38.2±20%
same,surface HLA-DR on CD4 T cells,"[1]; Example 10, BiP 100 μg/mouse, 11 days, n=5",50±6.2%
same,IL-8 production (MFI) in culture supernatants,IL-8,suppressed IL-8 production
